According to patent publication US9353089B2, “Compositions and methods for the treatment of malaria” (Saint Louis University, priority 2013, dated 2016):

How the values were obtained:
[1] = HLM metabolic stability assay; format: in vitro ADME; settings: pH 7.4, human liver microsomes, read-out: HLM t1/2
Procedure: (§1) In this protocol, the metabolic stability of compounds at 1 μM was determined in Mouse Liver Microsome (MLM), rat liver microsomes (RLM) or human liver microsomes (HLM). […]. After incubation at 37° C. for a specific time period (0, 5, 10, 20 and 30 min), the reaction was terminated by the addition of 200 μL ice cold acetonitrile containing internal standard (100 ng/mL) after 100 μL aliquots of reaction mixture was removed. The quenched reaction mixtures were centrifuged at 3200 rpm for 5 min, and 100 μL of the supernatant were transferred to 96-well deep plate. The samples in 96 well plate were analyzed by LC-MS/MS using an Applied Biosystems-Sciex model API 3000 mass spectrometer. The data were analyzed using the following equations. […]

[2] = Rat pharmacokinetic (PK) analysis; format: in vivo; settings: for half-life: male, SD, plasma, read-out: Rat PK t1/2 (converted)
Procedure: Male SD rats, weighing 180-220 g (Southern China Medical University, China) were utilized for the studies. Animals were maintained on standard animal chow and water ad libitum, in a climate controlled room (23±1° C.), 30-70% relative humidity, a minimum of 10 exchanges of room air per hour and a 12-h light/dark cycle) for one week prior to experiments. The test compound was dissolved in suitable solvent. Pharmacokinetic properties were determined following i.v. and oral administration. Animals were randomly distributed into two experimental groups (n=4). The oral groups were given 5 mg/kg of the test compound by gastric gavage. The other group was dosed by injection into the tail vein (1 mg/kg). […]; 2, 10, 30 min and 1, 2, 3, 4, 6, 8, 11 and 24 h (i.v.). Whole blood samples were collected in heparinized tubes. The plasma fraction was immediately separated by centrifugation (8,000 rpm, 6 min, 4° C.) and stored at −20° C. until LC-MS analysis. The rats were humanely euthanasia by carbon dioxide 24 hours after experiment without pain.
Plasma Sample Analysis. Standard Curve Sample Preparation:
The compound was dissolved in DMSO at a concentration of 2 mg/mL and diluted with 50% methanol solution to series concentration as follow: 20, 50, 100, 500, 1000, 2000, 4000, 6000, 12000, 40000 ng/mL. 10 μL series concentration solution and 50 μL blank plasma were added to 1.5 mL tube and vortex for 3 min, then 150 μL acetonitrile containing internal standard were added and vortex for 5 min, finally spin tube in centrifuge at 16000 g for 40 min at 4° C. Plasma sample preparation: The plasma samples were prepared using protein precipitation method. […] LC/MS/MS analysis: After centrifuge, 100 μL supernatant was transfer to the 96 well plate and analyzed by LC-MS/MS using an Applied Biosystems-Sciex model API 3000 mass spectrometer. The pharmacokinetics parameters were calculated by analyzing the compound concentration in plasma samples using the pharmacokinetic software DAS.2.0.

[3] = MLM metabolic stability assay; format: in vitro ADME; settings: pH 7.4, mouse liver microsomes, read-out: MLM t1/2
Procedure: as §1

SMILES | half-life at 1 μM [1] | Rat PK oral bioavailability (% F) ([2]; 5 mg/kg oral, 1 mg/kg i.v.) | half-life [2] | half-life at 1 μM [3]
COc1ccc(C2(c3ccc(OC)cc3)NC(=N)N(C3CCOCC3)C2=O)cc1 [Example 176, 2-imino-5,5-bis(4-methoxyphenyl)-3-(oxan-4-yl)-imidazolidin-4-one] | 36 min | 21 % F | 66 min | 
COc1ccc(C2(c3ccc(OC)cc3)NC(=N)N(C3CCN(C(=O)OC(C)(C)C)CC3)C2=O)cc1 [Example 206, tert-butyl 4-[2-imino-4,4-bis(4-methoxyphenyl)-5-oxoimidazolidin-1-yl]piperidine-1-carboxylate] |  |  | 72 min | 26 min
